Laboratory results reported in patent US5604209A, “Synergistic antiviral compositions” (Mitsubishi Chemical Corporation, priority 1993, dated 1997).
pIC50: −log10 of the molar value.

Tests used:
[1] = background statement; cited from earlier work
[2] = biological target: T1, HIV-1 reverse transcriptase (Human immunodeficiency virus type 1 group M subtype B, UniProt P04585); experiment: Inhibition of HIV-1 reverse transcriptase (incorporation of tritiated thymidine phosphate into cDNA), alone and combined with AZT-TP; assay type: biochemical; settings: for Combination Index CI50 (50% inhibition of RT) / Combination Index CI70 (70% inhibition of RT) / Combination Index CI90 (90% inhibition of RT): in combination with AZT-TP, AZT-TP/compound ratio 1/20 (MKC-442), 1/250 (R82913), 1/250 (Nevirapine), 1/40 (L-696229), CI<1 synergistic, CI>1 counterbalance
T1 construct: HIV-1 reverse transcriptase (RT)
Description: The inhibitory activity was evaluated on the basis of the incorporation Of tritiated thymidine phosphate into acid-precipitating cDNA in the presence of HIV-1 reverse transcriptase (RT).
To a reaction solution (50 mM Tris-HC1, pH 8.4, 0.1% Triton X-100, 100 mM magnesium chloride, 2 mM dithiothreitol, 50 mM potassium chloride, 0.1 mg/ml bovine serum albumin (nuclease-free, Worthington, Freehold, N.J.), 0.5 μCi [methyl-^3 H]TTP and 12 μg/ml poly(rA). p(dT)12-18)was added 10% solution of a test drug in dimethyl sulfoxide and RT (0.05 units) to obtain a reaction mixture of total volume of 50 μl. The mixture was incubated at 37° C. for 30 min and the reaction stopped with 2M EDTA (10 μl). The resultant reaction mixture (50 μl) was spotted on Whatman DE-81 filter paper circle. The circle was washed with 5% disodium hydrogenphosphate (×3), water (×2) and 95% ethanol (×2) and the radiation was counted with scintillation counter.
Thus, an isoborogram was prepared to evaluate the effect of combined use of AZT-TP and various allosteric inhibitors according to the method of Chou et al., Adv. Enzyme Regul., 22, 27-55 (1984) (FIG. 1). The data plotted were obtained by dividing IC50, the concentration of an allosteric inhibitor required to achieve 50% inhibition of reverse transcriptase of HIV, in the presence of AZT-TP with IC50 of an allosteric inhibitor obtained in the absence of a given concentration of AZT-TP. In the FIG. 1, each symbol represents individual allosteric inhibitor as follows.
Combination indexes (CI) for 50%, 70% and 90% inhibition of RT (representedby CI50, CI70 and CI90) were calculated according to the method of Prichard et al., Antimicrob. Agents Chemother., 35, 1060-1065 (1991) on the basis of results obtained in experiments carried out at least twice at indicated concentration ratio. Results are shown in Table 1 below, wherein CI<1 means the synergistic effect; CI1, additive effect; and CI>1, counterbalance effect.

## Cc1cn([C@H]2C[C@H](N=[N+]=[N-])[C@@H](CO)O2)c(=O)[nH]c1=O [AZT, 3'-azide-3'-deoxythymidine]
[1]
  reported side effects: severe anemia or leukopenia due to suppression of bone marrow

## Cc1cn([C@H]2C[C@H](N=[N+]=[N-])[C@@H](COP(=O)(O)OP(=O)(O)OP(=O)(O)O)O2)c(=O)[nH]c1=O [AZT-TP, 3'-azide-3'-deoxythymidine triphosphate]
[2]; in the presence of MKC-442 at 1/2 concentration of its IC50
  concentration of AZT-TP for 50% inhibition of RT as fraction of its IC50 alone: about 1/10

## CCc1cc(CCc2nc3ccccc3o2)c(=O)[nH]c1C [L-696229, 3-[2-(Benzoxazole-2-yl)ethyl]-5-ethyl-6-methylpyridine-2(1H)-one]
[2]
  Combination Index CI50 (50% inhibition of RT): 0.97
  Combination Index CI70 (70% inhibition of RT): 0.99
  Combination Index CI90 (90% inhibition of RT): 1.06

## CCOCn1c(Cc2ccccc2)c(C(C)C)c(=O)[nH]c1=O [MKC-442, 6-Benzyl-1-ethoxymethyl-5-isopropyluracil]
[2]
  Combination Index CI50 (50% inhibition of RT): 0.82
  Combination Index CI70 (70% inhibition of RT): 0.63
  Combination Index CI90 (90% inhibition of RT): 0.43
[2]; used alone, poly(rA).p(dT)12-18 template, 37° C., 30 min, read-out: IC50 (concentration required to obtain 50% inhibition of RT when used alone)
  pIC50: 7.47

## Cc1ccnc2c1NC(=O)c1cccnc1N2C1CC1 [Nevirapine, 5,11-Dihydro-11-cyclopropyl-4-methyldipyrido[2,3,-b:2',3'-e][1,4]diazepine-6-one]
[2]
  Combination Index CI50 (50% inhibition of RT): 1.04
  Combination Index CI70 (70% inhibition of RT): 0.91
  Combination Index CI90 (90% inhibition of RT): 0.69

## CC(C)=CCN1Cc2cc(Cl)cc3[nH]c(=S)n(c23)C[C@@H]1C [R82913, (+)-(S)-9-Chloro-4,5,6,7-tetrahydro-5-methyl-6-(3-methyl-2-butenyl)imidazo[4,5,1-jk][1,4]benzodiazepine-2(1H)-thione]
[2]
  Combination Index CI50 (50% inhibition of RT): 1.15
  Combination Index CI70 (70% inhibition of RT): 1.33
  Combination Index CI90 (90% inhibition of RT): 1.70
